In the experiment the test system is CEM cells HIV-1 protection, formazan growth assay. The experiment can be described thus: NCI AIDS Antiviral Assay. The conditions noted are these: for pIC50: measured here: growth of uninfected CEM cells. Summed up: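 Five concentrations of each compound were applied to infected and uninfected human CEM cells. Protection from HIV-1 was judged from growth measured with a soluble formazan assay.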

The structures appear in SMILES notation. pEC50, pIC50: −log10 of the molar value. Calls of active or inactive are those of the source.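 How the source made its calls: active means compounds giving half or more protection of infected cells from virus-caused growth loss, again on retest; inactive means the rest.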

For orientation: pEC50 means the EC50 on a negative log10 scale, so that one unit is a factor of ten. Usually pIC50 stands for the negative decadic logarithm of the IC50, by convention in mol/L. For `COc1cc(N=Nc2ccccc2)cc(/C=N/NC(N)=S)c1[O-].[CH2-]/[N+](=C\c1cc(N=Nc2ccccc2)cc(OC)c1[O-])NC(N)=S.[O]=[Mo+2]=[O].[O]=[Mo]=[O]`, the pEC50 is below 4.41 and the negative-log IC50 (pIC50) is 5.28.

Take `COc1cc(C(=O)C/C(CCC(=O)Nc2ccc(Cl)cc2C)=N/NC(=O)C(N)=O)ccc1O`: the outcome was inactive.

In the case of `COc1cc2cccc(N=Cc3ccccc3Cl)c2cc1OC`, the pEC50 was below 4.51 and the pIC50 was below 4.51.

In the case of `CCOP(=O)(OCC)/C(C#N)=C/c1ccnc2ccccc12`, the pEC50 was below 3.70 and the pIC50 was 4.95.

Turning to `Cc1ccc(C)c(C[P+](c2ccccc2)(c2ccccc2)c2ccccc2)c1`, the pEC50 is below 3.70 and the pIC50 was 6.01.

In the case of `CCCCCCCCCCCCCCCCCC(=O)OC[C@H](COP(=O)(O)OCCNC(=O)CCC(=O)O)OC(=O)CCCCCCCCCCCCCCCCC`, the pEC50 is below 4.30 and the negative-log IC50 (pIC50) is below 4.30.

With `c1ccc2sc(SSSSc3nc4ccccc4s3)nc2c1`, the pEC50 was below 3.70 and the pIC50 was 3.76.

With `O=C(O)CNCc1c2ccccc2nc2ccccc12`, the outcome was inactive.

For `CC(=O)Oc1ccccc1C(=O)/C=C/c1ccccc1`, the pEC50 was below 3.88 and the pIC50 was 4.92.

Take `CC1C/C(=C\c2ccc(OC(=O)C(C)(C)C)cc2)C(=O)/C(=C/c2ccc(OC(=O)C(C)(C)C)cc2)C1` (stereo unspecified): the pEC50 is below 4.30 and the pIC50 is 4.65.

As for `O=C(O)C12CC3CC(C1)C2C=C3P(=O)(O)O` (stereo unspecified), the pEC50 was below 2.99 and the negative-log IC50 (pIC50) was below 2.99.

On to `COC(=CN=Nc1nc(C#N)c(C#N)[nH]1)OC`, for which the pEC50 was below 3.67 and the pIC50 was 3.79.

Consider `O=[N+]([O-])c1cc2ccc1OCc1cccc(n1)COc1ccc(cc1[N+](=O)[O-])C=NCCCCCCCCN=C2`, for which the pEC50 is below 3.70 and the pIC50 was below 3.70.

On to `CCN(CC)c1ccc2c(C)cc(=O)oc2c1`, for which the pEC50 is below 3.66 and the negative logarithm of the IC50 (pIC50) is 3.98.

For the compound `COc1ccc2c(c1)OCC(O)(c1ccccc1)C2=O` (stereo unspecified), the pEC50 is below 3.70 and the negative logarithm of the IC50 (pIC50) is 3.81.

In the case of `CC(=O)OC12c3ccccc3-c3ccccc3C1C1C(=O)N(C)C(=O)C12Cl` (stereo unspecified), the pEC50 was below 4.17 and the pIC50 was below 4.17.

Regarding `CN(C)CCCN=C(N)CSP(=O)(O)O`, the pEC50 was below 3.70 and the negative logarithm of the IC50 (pIC50) is 4.49.

On to `CC1=Nc2ccc(C)cc2N=C(C)C1`, for which the pEC50 was below 3.70 and the pIC50 is below 3.70.

For the compound `CN(C)c1ccc(C=C2C(=O)N(c3ccccc3)N(c3ccccc3)C2=O)cc1`, the pEC50 was below 4.00 and the pIC50 was 4.16.

As to `N#Cc1c(N2CCCC2)[nH]c(=O)n(Cc2ccccc2)c1=S`, the pEC50 was below 3.70 and the negative-log IC50 (pIC50) was 3.94.

Take `O=S1(=O)CC2C(C1)C1(c3ccccc3)OC2(c2ccccc2)c2ccccc21` (stereo unspecified): the outcome was inactive.

Turning to `COc1cc(Nc2nc3ccc(C(F)(F)F)cc3nc2C(=O)O)cc(OC)c1OC`, the pEC50 is below 3.70 and the negative-log IC50 (pIC50) is 4.56.

For the compound `O=C1NC(=O)C(Cc2ccccc2Cl)N1` (stereo unspecified), the pEC50 is below 3.70 and the pIC50 is below 3.70.

Take `CC(C)(c1ccccc1)c1ccc(Oc2ccc(C#N)c(C#N)c2)cc1`: the pEC50 was below 4.53 and the pIC50 is 4.54.

For `Cc1ccc2c(/C=C/c3ccc(N(C)C)cc3)ccc(C(C)C)cc1-2`, the pEC50 is below 3.70 and the pIC50 was 3.82.

Consider `O=C1NN(Cc2ccccc2)C(=O)N2CCC[C@@H]12`, for which the pEC50 was below 3.70 and the negative-log IC50 (pIC50) is below 3.70.

In the case of `COc1cc(C2C(Cl)C(=O)N2NC(=O)Cc2ccccc2)cc(Br)c1O` (stereo unspecified), the pEC50 is below 4.51 and the pIC50 is below 4.51.

Take `CCNC(=S)N/N=C(\C)c1ccccn1`: the pEC50 was below 6.70 and the negative logarithm of the IC50 (pIC50) was 7.80.

For the compound `c1ccc2c3nnc(c2c1)SCCSCCCSCCS3`, the pEC50 was below 3.70 and the pIC50 was below 3.70.

On to `O=[N+]([O-])c1ccc(NC(=S)N=Nc2c(O)[nH]c3ccccc23)cc1`, for which the pEC50 is below 3.70 and the pIC50 is 4.81.

Consider `CCOC(=O)C1(N)CCc2[nH][nH]c(=O)c2C1` (stereo unspecified), for which the pEC50 was below 3.70 and the negative-log IC50 (pIC50) was below 3.70.

Regarding `O=[N+]([O-])c1ccc2nc(/C=C(\O)c3ccccc3)c(/C=C(\O)c3ccccc3)nc2c1`, the pEC50 was below 3.70 and the pIC50 is 4.70.

In the case of `CSC1(CC(=O)N2CCCCC2)C(=O)Nc2ccccc21` (stereo unspecified), the pEC50 was below 3.70 and the pIC50 was below 3.70.

Consider `O=c1ssc2ncccc12`, for which the pEC50 is below 3.53 and the negative logarithm of the IC50 (pIC50) is below 4.00.

Consider `C[CH2][Ge]([CH2]C)([CH2]C)[O]C(=O)CCC(=O)[O][Ge]([CH2]C)([CH2]C)[CH2]C`, for which the pEC50 is below 3.67 and the pIC50 is below 3.67.

On to `COc1ccc(CN2CCCN(Cc3ccc(OC)cc3)S2)cc1`, for which the pEC50 was below 4.12 and the pIC50 is 4.50.

Turning to `COc1ccc(N2C(=O)C3c4[nH]c5ccccc5c4C4C(C)CCCC4C3C2=O)cc1` (stereo unspecified), the pEC50 was below 3.70 and the pIC50 was 5.09.

Turning to `CN1CCC(=O)/C(=C/c2ccccc2)C1`, the result was inactive.

Turning to `O=C(CN(c1ccc(S(=O)(=O)O)cc1)c1ccc(S(=O)(=O)O)cc1)Nn1cnc2ccc(S(=O)(=O)N(c3ccc(S(=O)(=O)O)cc3)c3ccc(S(=O)(=O)O)cc3)cc2c1=O`, the pEC50 was below 4.00 and the negative-log IC50 (pIC50) is 4.02.

In the case of `O=S1(=O)NNC(=NCc2ccc(F)cc2)c2ccccc21`, the result was inactive.

On to `CCCCCc1nnc2n1N=C(c1ccc(Cl)cc1)CS2`, for which the pEC50 was below 3.70 and the pIC50 was below 3.70.

Turning to `CCOC(=O)Nc1cc(Nc2ccc(Cl)cc2)c2nc(-c3ccc(Cl)cc3)c(-c3ccc(Cl)cc3)nc2n1`, the pEC50 was below 4.43 and the negative-log IC50 (pIC50) is below 4.43.

Regarding `CC(C)=CCN1c2ccccc2[C@@]2(CC=C(C)C)CCN(C)[C@@H]12`, the pEC50 is below 3.70 and the negative-log IC50 (pIC50) is 4.48.

`N#Cc1n[nH]c2nc(=S)sc(N)c12`: the pEC50 is below 2.92 and the pIC50 was 3.05.

On to `CC1=Nc2ccccc2C12C(c1ccccc1)C(c1ccccc1)C(=O)N1c3ccccc3CC12` (stereo unspecified), for which the pEC50 was below 4.10 and the pIC50 was below 4.10.

In the case of `CCOC(C[Se]CC(OCC)OCC)OCC`, the pEC50 was 4.43 and the pIC50 is 3.95.

As to `CC(C)OP(=O)(OC(C)C)/C(=N/Nc1ccc([N+](=O)[O-])cc1)NNC(=O)c1ccccc1`, the pEC50 was below 4.39 and the pIC50 is 4.77.

Consider `Cc1nnc2c3nccnc3c(Cl)nn12`, for which the pEC50 was below 3.70 and the pIC50 was 5.63.

`COC(=O)c1sc(C(=O)OC)c2c1CSC2`: the result was inactive.

As to `Cc1nc2ccccc2nc1CC(=N)c1ccccc1`, the pEC50 is below 3.70 and the pIC50 was 4.21.

On to `N#C/C(=C\c1ccc(O)c(O)c1)C(=O)NCCCCCCCCCCNC(=O)/C(C#N)=C/c1ccc(O)c(O)c1`, for which the pEC50 was below 3.70 and the negative logarithm of the IC50 (pIC50) is 5.56.

On to `CC1=NOC(=O)/C1=C/c1ccccc1O`, for which the pEC50 was below 3.75 and the pIC50 was below 3.75.

As to `CC(C)(C)OC(=O)N[C@@H](Cc1ccccc1)CN1CCCC1C(=O)O` (stereo partly specified), the pEC50 was below 2.47 and the negative logarithm of the IC50 (pIC50) is 2.59.

As to `O=C(N=C1OC2C(OC(=O)c3ccccc3)C(COC(=O)c3ccccc3)OC2N1C(=O)c1ccccc1)c1ccccc1` (stereo unspecified), the pEC50 was below 3.70 and the pIC50 was 3.97.

For the compound `CC(C)=CCN1CC(C)Cn2c(=S)[nH]c3cccc1c32` (stereo unspecified), the pEC50 was 5.93 and the pIC50 is below 4.00.

With `CC(CN1CCCCC1)SSC(C)CN1CCCCC1` (stereo unspecified), the pEC50 is below 3.70 and the pIC50 is 4.62.

Regarding `COc1c(C)c(C/C=C(\C)CCCC(C)CCCC(C)CCCC(C)C)c(OC)c2ccccc12` (stereo unspecified), the pEC50 is below 3.70 and the pIC50 is below 3.70.

For the compound `Cn1c(=Nc2ccccc2[N+](=O)[O-])sc2ccccc21`, the pEC50 was below 3.70 and the negative-log IC50 (pIC50) is below 4.00.

For `COc1ccc(/C=C/C(=O)O)cc1OC`, the pEC50 was below 2.92 and the negative logarithm of the IC50 (pIC50) is below 2.92.

For `C=C1c2nc3ccccc3n2C=C(c2ccc(C)cc2)N1c1ccccc1`, the pEC50 is below 3.70 and the pIC50 was 5.87.

As to `O=C1CCC(c2ccccc2)=NN1c1nc2ccccc2s1`, the result was inactive.

Consider `O=C(/C=C/c1ccc(Cl)c(Cl)c1)CCN1CCN(CCC(=O)/C=C/c2ccc(Cl)c(Cl)c2)CC1`, for which the pEC50 is below 3.70 and the pIC50 is 5.72.

For the compound `Cc1c(Cl)ccc2c1NC(=O)C2(O)CC(=O)c1ccc2ccccc2c1` (stereo unspecified), the pEC50 was below 4.71 and the pIC50 is below 4.71.

Consider `Cc1ccc(/C=C/C(=O)C(C)(C)CN2CCCCC2)cc1`, for which the pEC50 was below 4.56 and the negative logarithm of the IC50 (pIC50) is below 4.56.

For the compound `CC(=O)SCC1CC[C@]2(C)C3CC[C@]4(C)C(C(C)CCC(=O)O)CCC4[C@@H]3CC[C@@H]2C1` (stereo partly specified), the pEC50 was below 5.23 and the pIC50 is below 5.23.

`Nc1nnc2nc(CC(=O)c3cccc([N+](=O)[O-])c3)/c(=C/C(=O)c3cccc([N+](=O)[O-])c3)n12`: the pEC50 is below 4.79 and the negative logarithm of the IC50 (pIC50) is below 4.79.

For `Cc1ccc(C)c(N2C(=O)C(=O)C(c3nc4ccccc4s3)/C(=N/NC(=O)NN)C2=O)c1` (stereo unspecified), the outcome was inactive.

With `C/C=C/C#CC#CC(O)C(/C=C/CCCO)OC1OC(CO)C(O)C(O)C1O` (stereo unspecified), the pEC50 was below 3.80 and the negative logarithm of the IC50 (pIC50) was below 3.80.

Take `COc1cc2c(cc1OC)C1CCc3ccccc3CN1CC2` (stereo unspecified): the pEC50 is below 3.70 and the negative logarithm of the IC50 (pIC50) is 3.77.

With `COc1ccc(/C=C/C(=O)/C=C/c2ccc(OC)cc2)cc1`, the pEC50 was below 3.70 and the pIC50 is 4.14.

`C(=C\c1c[nH]c2ccccc12)/c1nccc2ccccc12`: the pEC50 was 7.20 and the pIC50 is 3.97.

As to `COC(=O)c1c2c(cc3c1CC1(Cc4cc5c(c(C=O)c4C1)CCC5)C3)CCC2` (stereo unspecified), the pEC50 was below 3.70 and the negative logarithm of the IC50 (pIC50) was 4.70.

Source of the values: PubChem BioAssay AID179 (DTP/NCI, 2004).
